Test [1] deals with learning disorder-induced mouse. In words: Y-maze test on learning disorder-induced (LPS) mouse. It is filed as in vivo. To be noted: for Learning ability in Y-maze test: LPS-administered mice, Examples 6 and 7. The procedure:
The learning disorder-alleviating activity of the GLP-1 derivative was evaluated by a Y-maze test on a learning disorder-induced mouse, using the FOS 12 solution of GLP-1 derivative.
As the learning disorder-induced mouse, ddY mice (5-7 week old, male, n=5) were administered with lipopolysaccharide (LPS) by 10 μg at three days before the test. Fifteen minutes before the administration of LPS, the mice were administered with GLP-1 derivative by 3 μg with the FOS 12 solution of GLP-1 derivative.
The Y-maze test was performed by using a device having three arms of the same size. The number of times that the mouse entered the different arm for consecutive three times was counted, and the result was divided by a number obtained by deducting 2 from the total number of times of entering the arm. The result was multiplied by 100, and used as a spontaneous alternation behavior (%).
As a control, mice (5-7 week old, male, n=5 or 7), intranasally administered a solvent without GLP-1 derivative by 4 μL 15 minutes before the administration of LPS, were subjected to the same test as the above. Further, mice that were not administered with LPS (vehicle) were subjected to the same test as the above. The error bar represents mean±SE (n=5 or 7), and the statistical processing was performed by Mann-Whitney test (*P<0.05, **P<0.01).
As the learning disorder-induced mouse, ddY mice (5-7 week old, male, n=6) administered with lipopolysaccharide (LPS) by 10 μg three days before the test were used. Fifteen minutes before the administration of LPS, the mice were administered with NmU derivative by 3 μg with the FOS 12 solution of NmU derivative. A Y-maze test was performed in the same manner as Example 6, and a spontaneous alternation behavior (%) was calculated from the measurement results.
As a control, mice (5-7 week old, male, n=6), which were intranasally administered a solvent without NmU derivative by 4 μL 15 minutes before the administration of LPS, were subjected to the same test as the above. Further, mice not administered with LPS (vehicle) were subjected to the same test as the above. The error bar represents mean±SE (n=6), and the statistical processing was performed by Mann-Whitney test (*P<0.01, **P<0.001).

Test [2] deals with depression model mouse. The test is described as follows: Forced-swim test on ACTH-induced treatment-resistant depression model mouse. It is filed as in vivo. As to conditions: Example 5, treatment-resistive depression model. The procedure:
The anti-depression activity of the GLP-2 derivative was evaluated by a forced-swim test on a depression model […] using the DMSO solution of GLP-2 derivative as prepared in Example 3.
As the depression model mouse, ddY mice (5-7 week old, male, n=11) were administered with adrenocorticotropic hormone (ACTH) to induce an enhanced state of hypothalamic-pituitary-adrenal axis (HPA system). The administration of ACTH was performed by 0.45 mg/kg/day for consecutive 14 days.
The forced-swim test was performed in the same manner as Example 3 and the immobility time (s) was measured. The mice were intranasally administered with GLP-2 derivative by 3.6 μg as a DMSO solution of GLP-2 derivative, each day for consecutive 6 days until the day for the test. As a control, mice (5-7 week old, male, n=11) were administered with a solvent without GLP-2 derivative by 4 μL each day for consecutive 6 days and subjected to a forced-swim test in the same manner. The error bar represents mean±SE (n=11), and the statistical processing was performed by Mann-Whitney test (*P<0.01).

The test system of test [3] is rats. In words: Forced-swim test on rats (anti-depression activity). It is filed as in vivo, rat. To be noted: intranasal 18 μg/day. The procedure: The anti-depression activity of the GLP-2 derivative was evaluated by a forced-swim test on rats using the DMSO solution of GLP-2 derivative. The forced-swim test was performed in accordance with the following procedure.
One hour before the test, rats (8-10 week old, male, n=6) were transferred to the laboratory for habituation. The rats were intranasally administered with the DMSO solution of GLP-2 derivative by 18 μg/day for two days, 30 minutes before the test. The rats were allowed to swim for 15 minutes, one by one in a transparent plastic cylinder with a diameter of 18 cm and a height of 50 cm filled with water of 25±1° C. to a height of 30 cm. During the swimming, the immobility time (s) was measured. The rats after the test were wiped with a Kimtowel and placed back to a cage. The test was performed for consecutive 2 days, day 1 as a preliminary test and day 2 as a main test. As a control, rats (8-10 week old, male, n=6) were intranasally administered with a solvent without GLP-2 derivative by 10 μL and subjected to a forced-swim test in the same manner. The error bar represents mean±SE (n=6), and the statistical processing was performed by Mann-Whitney test (*P<0.05). […]

Test [4] relates to ddY mice. The test is described as follows: Forced-swim test on a mouse. The format is in vivo. As to conditions: Example 3, mouse forced-swim test. The procedure: The anti-depression activity of the GLP-2 derivative was evaluated by a forced-swim test on a mouse. The test was performed by the following process.
Twenty-four hours before the test, ddY mice (5-7 week old, male, n=12) were subjected to a preliminary swimming for 15 minutes. The mice were administered GLP-2 derivative by 3.6 μg with the DMSO solution, on the day before the test and on the day for the test, respectively. Then, the test was performed in the same manner as Example 1, and the immobility time (s) was measured. As a control, mice (5-7 week old, male, n=12) were administered with a solution without GLP-2 derivative were subjected to a forced-swim test in the same manner. The error bar represents mean±SE (n=12), and the statistical processing was performed by Mann-Whitney test (*P<0.05).

The test system of test [5] is ddY mice. In words: Tail suspension test on a mouse. It is filed as in vivo. As to conditions: Example 4, mouse tail suspension test. How it is done:
The anti-depression activity of the GLP-2 derivative was evaluated by a tail suspension test on a mouse, using the DMSO solution of GLP-2 derivative as prepared in Example 3. The test was performed by the following process.
On the day before the test and on the day for the test, ddY mice (5-7 week old, male, n=9) were administered with the GLP-derivative by 3.6 μg, respectively, with the DMSO solution. Then, the mice were suspended by the tail and the immobility time (s) was measured. As a control, mice (5-7 week old, male, n=9) were intranasally administered with a solvent without GLP-2 derivative and subjected to a tail suspension test in the same manner. The error bar represents mean±SE (n=9), and the statistical processing was performed by Mann-Whitney test (*P<0.05).

Experimental findings from patent US20210163567A1, “Method of Delivering a Centrally-Acting Peptide Derivative, and Method of Treating a Neuropsychiatric Disorder” (TOKYO UNIVERSITY OF SCIENCE FOUNDATION, priority 2014, published 2021) are described below.

Where “and” joins values, the source holds several entries; their conditions need not be identical. Identical values can stand only once. Ends that are not written are not given here.

In the case of “FFLIPKG-(R)8-(G)2-HAEGTFTSDVSSYLEGQAAKEFIAWLVKGR-NH2 [GLP-1 derivative]”, the “Alternation behavior (%)” value was 64.3% and 66.7% (2×) and 67.9% and 67.4% in test [1] (Example 6: LPS 10 μg three days before test, GLP-1 derivative 3 μg 15 minutes before LPS, individual animals n=5); 56.4% and 72.2% and 70.3% and 78.6% and 67.6% in test [1] (Example 6: Vehicle (mice not administered LPS), GLP-1 derivative 3 μg, individual animals n=5).
As to “FFFFG-(R)8-(G)2-YKVNEYQGPVAPSGGFFLFRPRN-NH2 (not fully specified (N-terminus)) [NmU derivative, derivative of neuromedin U with PAS (FFFFG), octa-arginine and GG spacer]”, the “Alternation behavior (%)” value in test [1] (Example 7: LPS 10 μg three days before test, NmU derivative 3 μg 15 minutes before LPS, individual animals n=6) is 58.6% and 72.4% and 66.7% and 60.0% and 74.1% and 69.4%; in test [1] (Example 7: Vehicle (mice not administered LPS), NmU derivative 3 μg, individual animals n=6), 65.9% and 70.5% and 69.0% and 63.9% and 67.8% and 78.8%.
“YKVNEYQGPVAPSGGFFLFRPRN-NH2 [NmU, neuromedin U; label printed in b156 where the NmU derivative is probably meant, reference compound]”: the “Learning ability in Y-maze test” value in test [1] was “learning ability is significantly ameliorated”.
Regarding “HADGSFSDEMNTILDNLAARDFINWLIQTKITD [GLP-2]”, the “Effect of suppressing depression” value in test [2], in test [4] and in test [5] was “an effect of suppressing depression is obtained” each time. In test [3] (Comparative Example 1: GLP-2 alone, individual animals n=6), the “Immobility time” value was 46 s and 15 s and 45 s and 41 s and 30 s and 33 s. Further, the “Immobility time / anti-depression activity versus control group” value in test [3] (Mann-Whitney test) is listed as “no significant difference in the anti-depression activity”.
In the case of “HAEGTFTSDVSSYLEGQAAKEFIAWLVKGR-NH2 [GLP-1, glucagon-like peptide-1; label printed in b156 where the GLP-1 derivative is probably meant, reference compound]”, the “Learning ability in Y-maze test” value in test [1] is on record as “learning ability is significantly ameliorated”.
